Source: US11149031B2, “Substituted N-(3-fluoropropyl)-pyrrolidine compounds, processes for their preparation and therapeutic uses thereof” (SANOFI, priority 2016, dated 2021)

Experiments:
ERα in MCF7 cells = ERα in MCF7 cells (Homo sapiens (Human), UniProt P03372); assay: Test C: estrogen receptor degradation activity, ERα in cell western assay in MCF7 cells; format: cell-based; conditions: for DC50: 4 hours post compound addition, ERα in cell western, read-out: Degradation IC50; for % Degradation at 3 μM: 4 hours, relative to fulvestrant
Experimental: Test C: Estrogen Receptor Degradation Activity
Test C involves measuring the in vitro degradation activity of the compounds of the invention.
The measurements of the degradation activities were made using abreast cancer cell ERα in cell western assay as described hereunder.
MCF7 cells (ATCC) were seeded in 384 wells microplate (collagen coated) at concentration of >9990 cells/30 μL per well in red phenol free MEM alpha medium (invitrogen) containing 5% charcoal dextran striped FBS. The following day, 9 points serial 1:5 dilution of each compound were added to the cells in 2.5 μL at final concentrations ranging from 3-0.000018 μM or 0.1 μM for fulvestrant (using as positive control). At 4 hours post compounds addition the cells were fixed by adding 25 μL of formalin (final concentration 5% formalin containing 0.1% triton) for 10 minutes at room temperature and then washed twice with PBS. Then, 50 μL of LI-COR blocking buffer containing 0.1% Triton was added to plate for 30 minutes at room temperature. LI-COR blocking buffer was removed and cells were incubated overnight at cold room with 50 μL anti-ER rabbit monoclonal antibody (Thermo scientific MA1-39540) diluted at 1:>999 in LI-COR blocking buffer containing 0.1% tween-20. Wells which were treated with blocking but no antibody were used as background control. Wells were washed twice with PBS (0.1% tween-20) and incubated at 37° C. for 60 minutes in LI-COR (0.1% tween-20) containing goat anti-rabbit antibody Alexa 488 (1:>999) and Syto-64 a DNA dye (2 μM final concentration). Cells were then washed 3 times in PBS and scanned in ACUMEN explorer (TTP-Labtech). Integrated intensities in the green fluorescence and red fluorescence were measured to determine the levels of ERα and DNA respectively.

[1] = biological target: His6-ERα298-554 WT (ERα ligand-binding domain) (Homo sapiens (Human), UniProt P03372); assay: Test A: biochemical antagonist activity, LanthaScreen TR-FRET ERα coactivator assay, WT; conditions: protocol with 3 nM estradiol; read-out: Antagonism WT IC50
Experimental: (§1) Test A: Biochemical Antagonist Activity on Wild Type (WT) and Mutants
(§2) Estrogen Receptors Test A involves measuring the in vitro antagonist activity of the compounds of the invention on estrogen receptors.
(§3) The measurements of the antagonist activities were made using an estrogen receptor coactivator assay as described hereunder.
(§4) Antagonistic potency of compounds was evaluated using LanthaScreen® TR-FRET ERα Coactivator Assay (ThermoFisher) with modifications. […] The assay works in a homogeneous mix-and-read format. In a typical experiment, a 4 μL mixture of 0.5 nM His6-ERα298-554, 0.5 nM Tb-labeled His6 antibody, 250 nM PGC1a peptide, and 3 nM estradiol (or 10 nM estradiol) in 100 mM potassium phosphate, pH 7.4, 0.01% Tween-20, 0.02% NaN3, 5 mM DTT, was added to 40 nL test compound in DMSO and incubated overnight at room temperature. The TR-FRET 520:495 nm emission ratio was calculated and used to determine the IC50 value from a dose response curve fit to the 4-parameter logistic equation.

[2] = biological target: His6-ERα298-554 Y537S mutant (ERα ligand-binding domain) (Homo sapiens (Human), UniProt P03372, Y537S); assay: Test A: biochemical antagonist activity, LanthaScreen TR-FRET ERα coactivator assay, Y537S mutant; conditions: protocol with 3 nM estradiol; read-out: Antagonism Y537S IC50
Experimental: as §1, §2, §3, §4

[3] = biological target: His6-ERα298-554 D538G mutant (ERα ligand-binding domain) (Homo sapiens (Human), UniProt P03372, D538G); assay: Test A: biochemical antagonist activity, LanthaScreen TR-FRET ERα coactivator assay, D538G mutant; conditions: protocol with 3 nM estradiol; read-out: Antagonism D538G IC50
Experimental: as §1, §2, §3, §4

ERα in MCF7 cells, sequence (P03372 whole entry): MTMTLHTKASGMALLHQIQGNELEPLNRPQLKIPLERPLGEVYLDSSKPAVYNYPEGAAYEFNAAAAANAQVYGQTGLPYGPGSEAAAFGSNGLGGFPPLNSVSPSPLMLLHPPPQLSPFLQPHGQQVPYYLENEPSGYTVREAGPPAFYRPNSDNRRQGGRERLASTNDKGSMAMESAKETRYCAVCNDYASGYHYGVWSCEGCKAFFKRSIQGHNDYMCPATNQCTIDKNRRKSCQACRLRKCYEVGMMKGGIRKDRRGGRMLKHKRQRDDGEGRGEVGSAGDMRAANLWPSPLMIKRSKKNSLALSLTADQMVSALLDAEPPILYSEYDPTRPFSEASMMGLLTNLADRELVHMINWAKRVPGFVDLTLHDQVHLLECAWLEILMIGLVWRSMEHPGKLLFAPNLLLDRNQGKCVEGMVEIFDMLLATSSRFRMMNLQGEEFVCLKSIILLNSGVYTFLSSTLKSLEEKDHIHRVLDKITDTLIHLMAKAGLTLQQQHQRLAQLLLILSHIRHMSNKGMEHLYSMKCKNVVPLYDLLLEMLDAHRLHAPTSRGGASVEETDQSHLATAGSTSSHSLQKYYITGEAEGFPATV
His6-ERα298-554 D538G mutant (ERα ligand-binding domain), sequence (P03372 298-554 D538G): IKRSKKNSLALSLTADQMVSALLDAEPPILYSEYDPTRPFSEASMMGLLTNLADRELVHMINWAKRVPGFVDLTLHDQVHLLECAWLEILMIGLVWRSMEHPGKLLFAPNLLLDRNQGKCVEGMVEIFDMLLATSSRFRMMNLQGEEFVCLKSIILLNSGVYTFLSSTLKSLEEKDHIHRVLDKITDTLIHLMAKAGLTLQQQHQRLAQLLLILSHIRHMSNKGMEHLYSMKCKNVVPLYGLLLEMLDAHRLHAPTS
His6-ERα298-554 WT (ERα ligand-binding domain), sequence (P03372 298-554): as the sequence (P03372 298-554 D538G) above, with G241D counted along it
His6-ERα298-554 Y537S mutant (ERα ligand-binding domain), sequence (P03372 298-554 Y537S): as the sequence (P03372 298-554 D538G) above, with Y240S, G241D counted along it

SMILES	DC50 (ERα in MCF7 cells)	% Degradation at 3 μM (ERα in MCF7 cells)	IC50 [1]	IC50 [2]	IC50 [3]
Oc1ccc2c(c1)C(c1ccc(O[C@H]3CCN(CCCF)C3)cc1)=C(c1ccncc1F)CC2 [Example 1, 8-[4-[(3S)-1-(3-fluoropropyl)pyrrolidin-3-yl]oxyphenyl]-7-(3-fluoro-4-pyridyl)-5,6-dihydronaphthalen-2-ol]	34 nM	84%	460 nM	–	–
Oc1ccc2c(c1)C(c1ccc(O[C@H]3CCN(CCCF)C3)cc1)=C(C1=CCOCC1)CC2 [Example 3, 7-(3,6-dihydro-2H-pyran-4-yl)-8-[4-[(3S)-1-(3-fluoropropyl)pyrrolidin-3-yl]oxyphenyl]-5,6-dihydronaphthalen-2-ol]	85 nM	80%	1510 nM	–	–
Oc1ccc2c(c1)C(c1ccc(O[C@H]3CCN(CCCF)C3)cc1)=C(c1ccc(F)cc1Cl)CC2 [Example 4, 7-(2-chloro-4-fluoro-phenyl)-8-[4-[(3S)-1-(3-fluoropropyl)pyrrolidin-3-yl]oxyphenyl]-5,6-dihydronaphthalen-2-ol]	12 nM	87%	284 nM	–	–
Oc1ccc2c(c1)C(c1ccc(O[C@H]3CCN(CCCF)C3)cc1)=C(c1ccc3[nH]ccc3c1)CC2 [Example 5, 8-[4-[(3S)-1-(3-fluoropropyl)pyrrolidin-3-yl]oxyphenyl]-7-(1H-indol-5-yl)-5,6-dihydronaphthalen-2-ol]	0.5 nM	81%	28 nM	72 nM	209 nM
Oc1ccc(C2=C(c3ccc(O[C@H]4CCN(CCCF)C4)cc3)c3cc(O)ccc3CC2)c(F)c1 [Example 6, 7-(2-fluoro-4-hydroxy-phenyl)-8-[4-[(3S)-1-(3-fluoropropyl)pyrrolidin-3-yl]oxyphenyl]-5,6-dihydronaphthalen-2-ol]	0.2 nM	84%	2 nM	8 nM	13 nM
Oc1ccc2c(c1)SCC(c1ccc3[nH]ccc3c1)=C2c1ccc(O[C@H]2CCN(CCCF)C2)cc1 [Example 19, 4-[4-[(3S)-1-(3-fluoropropyl)pyrrolidin-3-yl]oxyphenyl]-3-(1H-indol-5-yl)-2H-thiochromen-7-ol]	3 nM	78%	7 nM	11 nM	23 nM
Oc1ccc2c(c1)SCC(c1ccc3c(c1)CCN3)=C2c1ccc(O[C@H]2CCN(CCCF)C2)cc1 [Example 20, 4-[4-[(3S)-1-(3-fluoropropyl)pyrrolidin-3-yl]oxyphenyl]-3-indolin-5-yl-2H-thiochromen-7-ol]	3 nM	86%	15 nM	21 nM	46 nM
Oc1ccc2c(c1)SCC(c1ccc(Cl)cc1Cl)=C2c1ccc(O[C@H]2CCN(CCCF)C2)cc1 [Example 21, 3-(2,4-dichlorophenyl)-4-[4-[(3S)-1-(3-fluoropropyl)pyrrolidin-3-yl]oxyphenyl]-2H-thiochromen-7-ol]	3 nM	92%	9 nM	19 nM	47 nM
Oc1ccc2c(c1)C(c1ccc(O[C@H]3CCN(CCCF)C3)cc1)=C(c1ccc(Cl)cc1Cl)CCS2 [Example 182, 4-(2,4-dichlorophenyl)-5-[4-[(3S)-1-(3-fluoropropyl)pyrrolidin-3-yl]oxyphenyl]-2,3-dihydro-1-benzothiepin-7-ol]	5 nM	79%	–	–	–
O=S1(=O)CCC(c2ccc(Cl)cc2Cl)=C(c2ccc(O[C@H]3CCN(CCCF)C3)cc2)c2ccc(O)cc21 [Example 231, 4-(2,4-dichlorophenyl)-5-[4-[(3S)-1-(3-fluoropropyl)pyrrolidin-3-yl]oxyphenyl]-1,1-dioxo-2,3-dihydro-1λ^6-benzothiepin-8-ol]	2 nM	96%	–	–	–
